Data set [1] has as its system Rattus norvegicus. Briefly: Hypoglycemic activity in Sprague-Dawley rat assessed as reduction of blood glucose level at 100 mg/kg, po by glucagon-impaired glucose disposal test relative to control. The arrangement: scale not given: the % may be the effect or the level left. The class given is functional.
The test system of data set [2] is Rattus norvegicus. Briefly: Narcotic analgesic activity in po dosed fasted Sprague-Dawley rat measured at 15 mins by D'Amour-Smith tail-flick test. The data set is classed as functional. Particulars: 0.25 h.
Data set [3] deals with Mus musculus. Kind of data set: Analgesic activity in po dosed Swiss-Webster mouse assessed as reduction of acetylcholine-induced writhing. The data set is classed as functional. (In general: In writhing tests, fewer writhes than in controls are read as antinociception.)
In data set [4] the test system is Mus musculus. Kind of data set: Toxicity in Swiss-Webster mouse assessed as stimulation of straub tail at 150 mg/kg, po after 15 to 25 mins. The class given is organism-based. The arrangement: dose 150 mg/kg, route oral. To be noted: in vivo.
In data set [5] the test system is Rattus norvegicus. Briefly: Hypoglycemic activity in fasted Sprague-Dawley rat assessed as reduction of blood glucose level at 100 mg/kg, po relative to control. Further details: scale not given: the % may be the effect or the level left. The class given is functional.
Data set [6] has as its system Rattus norvegicus. Briefly: Narcotic analgesic activity in fasted Sprague-Dawley rat at 240 mg/kg, po measured at 15 mins by D'Amour-Smith tail-flick test relative to control. The data set is classed as functional. (In hot-plate and tail-flick tests a longer latency is read as antinociception.)
Data set [7] concerns Mus musculus. Briefly: Analgesic activity in Swiss-Webster mouse assessed as reduction of acetylcholine-induced writhing at 75 mg/kg, sc relative to control. The class given is functional. Further details: scale not given: the % may be the effect or the level left. To be noted: route subcutaneous.
For data set [8], the system named is Rattus norvegicus. Kind of data set: Hypoglycemic activity in Sprague-Dawley rat assessed as reduction of blood glucose level at 88 mg/kg, po by glucagon-impaired glucose disposal test in presence of microsomal enzyme inhibitor SKF 525-A. The class given is functional, organism-based. Further details: dose 88 mg/kg.
Data set [9] relates to Rattus norvegicus. Briefly: Narcotic analgesic activity in fasted Sprague-Dawley rat at 120 mg/kg,sc measured at 30 mins by D'Amour-Smith tail-flick test in presence of opioid antagonist nalorphine. The data set is classed as functional, organism-based. Further details: dose 120 mg/kg.
Data set [10] deals with Rattus norvegicus. Kind of data set: Hypoglycemic activity in Sprague-Dawley rat assessed as reduction of blood glucose level at 88 mg/kg, po by glucagon-impaired glucose disposal test in presence of opioid antagonist nalorphine. The class given is functional, organism-based. Further details: dose 88 mg/kg.
For data set [11], the species on record is Rattus norvegicus. Kind of data set: Narcotic analgesic activity in Sprague-Dawley rat at 15 mins by D'Amour-Smith tail-flick test in presence of microsomal enzyme inhibitor SKF 525-A. The data set is classed as functional, organism-based.
Data set [12] concerns Rattus norvegicus. Briefly: Hypoglycemic activity in Sprague-Dawley rat assessed as reduction of blood glucose level at 89 mg/kg, po by glucagon-impaired glucose disposal test relative to control. The data set is classed as functional. Further details: scale not given: the % may be the effect or the level left.
Data set [13] has as its system Rattus norvegicus. Briefly: Hypoglycemic activity in Sprague-Dawley rat assessed as reduction of blood glucose level at 88 mg/kg, po by glucagon-impaired glucose disposal test relative to control. The data set is classed as functional.
Data set [14] deals with Rattus norvegicus. Briefly: Narcotic analgesic activity in po dosed fasted Sprague-Dawley rat measured at 60 mins by D'Amour-Smith tail-flick test. The class given is functional. To be noted: Rattus norvegicus, Sprague-Dawley, Tail, po, 1 h; read-out: ED50.
Data set [15] deals with Mus musculus. Kind of data set: Analgesic activity in sc dosed Swiss-Webster mouse assessed as reduction of acetylcholine-induced writhing. The data set is classed as functional. To be noted: Mus musculus, Swiss-Webster, sc; read-out: ED50.
Data set [16] concerns Rattus norvegicus. Briefly: Hypoglycemic activity in Sprague-Dawley rat assessed as reduction of blood glucose level at 87 mg/kg, po by glucagon-impaired glucose disposal test in presence of microsomal enzyme inhibitor SKF 525-A. The class given is functional, organism-based. The arrangement: dose 87 mg/kg.
A short description of data set [17]: Drug level in glucose loaded Sprague-Dawley rat urine treated with (RS-exo,exo)-8-methyl-2-(2-thienyl)-8-azabicyclo[3.2.1]octane-3-carboxylate at 20 mg, po administered 3 to 6 hrs measured for 24 hrs by TLC/mass spectrographic analysis. The class given is ADME, organism-based. Particulars: in vivo.
Data set [18] can be described thus: Drug level in glucose loaded Sprague-Dawley rat urine treated with methyl (exo,exo)-8-(l-pentyl)-2-(2-thienyl)-8-azabicyclo[3.2.1]octane-3-carboxylate at 20 mg, po administered 3 to 6 hrs measured for 24 hrs by TLC/mass spectrographic analysis. The data set is classed as ADME, organism-based. Particulars: in vivo.
The test system of data set [19] is Rattus norvegicus. Kind of data set: Hypoglycemic activity in Sprague-Dawley rat assessed as reduction of blood glucose level at 87 mg/kg, po by glucagon-impaired glucose disposal test relative to control. The arrangement: scale not given: the % may be the effect or the level left. The class given is functional.
The subject of data set [20] is Rattus norvegicus. Briefly: Hypoglycemic activity in glucose/glycogen loaded Sprague-Dawley rat assessed as reduction of blood glucose level at 87 mg/kg, po. The class given is functional, organism-based. Further details: dose 87 mg/kg.
In data set [21] the test system is Rattus norvegicus. Kind of data set: Narcotic analgesic activity in fasted Sprague-Dawley rat at 240 mg/kg, po measured at 60 mins by D'Amour-Smith tail-flick test relative to control. The class given is functional.
Data set [22] deals with Mus musculus. Kind of data set: Analgesic activity in Swiss-Webster mouse assessed as reduction of acetylcholine-induced writhing at 25 mg/kg, sc relative to control. The class given is functional. The arrangement: scale not given: the % may be the effect or the level left. To be noted: route subcutaneous.
The subject of data set [23] is Rattus norvegicus. Kind of data set: Hypoglycemic activity in sc dosed fasted Sprague-Dawley rat assessed as reduction of blood glucose level measured for 0.5 to 2 hrs. The data set is classed as functional, organism-based.
Data set [24] relates to Rattus norvegicus. Kind of data set: Narcotic analgesic activity in fed Sprague-Dawley rat at 120 mg/kg, sc measured at 30 mins by D'Amour-Smith tail-flick test. The class given is functional. To be noted: route subcutaneous.
In data set [25] the test system is Rattus norvegicus. Kind of data set: Analgesic activity in rat assessed as protection against intraarterial bradykinin-induced pain response at 100 mg/kg, sc. Further details: dose 100 mg/kg. The data set is classed as functional, organism-based.
In data set [26] the test system is Rattus norvegicus. Briefly: Hypoglycemic activity in glucose loaded Sprague-Dawley rat assessed as reduction of blood glucose level at 89 mg/kg, po relative to control. The class given is functional. Further details: scale not given: the % may be the effect or the level left.
In data set [27] the test system is Rattus norvegicus. Briefly: Toxicity in Sprague-Dawley rat assessed as rigidity at 240 mg/kg, po. The arrangement: dose 240 mg/kg, route oral. Particulars: in vivo. The data set is classed as organism-based.
Data set [28] has as its system Rattus norvegicus. Briefly: Hypoglycemic activity in glucose loaded Sprague-Dawley rat assessed as reduction of blood glucose level at 100 mg/kg, po relative to control. The data set is classed as functional. Further details: scale not given: the % may be the effect or the level left.
Data set [29] concerns Rattus norvegicus. Briefly: Toxicity in Sprague-Dawley rat assessed as tremor at 240 mg/kg, po. The class given is organism-based. Further details: dose 240 mg/kg, route oral. To be noted: in vivo.
The subject of data set [30] is Rattus norvegicus. Kind of data set: Toxicity in Sprague-Dawley rat assessed as hyperexcitability at 240 mg/kg, po. The data set is classed as organism-based. Further details: dose 240 mg/kg, route oral. Particulars: in vivo.
The subject of data set [31] is Rattus norvegicus. Briefly: Hypoglycemic activity in glucose loaded Sprague-Dawley rat assessed as reduction of blood glucose level at 100 mg/kg, po in presence of microsomal enzyme inhibitor SKF 525-A. The data set is classed as functional, organism-based. Further details: dose 100 mg/kg.

The source made the active and inactive calls. The calls are words filed in the database; no cut-off is given here.

As to `CCOC(=O)[C@H]1C[C@H]2CC[C@H]([C@H]1c1cccs1)N2C`, the Activity is recorded as under 20% in the data set with Rattus norvegicus [1] and “Toxic” in the data set on Mus musculus [4]. Also, the values for the median effective dose (ED50) with Rattus norvegicus [2] and in the data set with Mus musculus [3] were 95 mg/kg and 21 mg/kg, respectively.

Take `COC(=O)[C@H]1C[C@H]2CC[C@H]([C@H]1c1cccs1)N2CCc1ccccc1`: the Activity came out at 29% in the data set with Rattus norvegicus [5], 96% in the data set on Rattus norvegicus [6] and 27% in the data set on Mus musculus [7].

Consider `COC(=O)[C@H]1C[C@H]2CC[C@H]([C@H]1c1ccc(O)cc1)N2C`, for which the Activity in the data set on Rattus norvegicus [1] is under 20%.

`COC(=O)[C@H]1C[C@H]2CC[C@H]([C@H]1c1cccs1)N2C`: the result in the data set on Rattus norvegicus [8], with Rattus norvegicus [9] and in the data set filed under Rattus norvegicus [11] was inactive. For the same molecule, in the data set with Rattus norvegicus [10], the result was Active.

As for `COC(=O)[C@H]1C[C@H]2CC[C@H]([C@H]1c1cccc(OC)c1)N2C.Cl`, the Activity with Rattus norvegicus [12] stood at 24%.

Take `COC(=O)[C@H]1[C@@H](OC(=O)c2ccccc2)C[C@@H]2CC[C@H]1N2C`: the outcome in the data set on Rattus norvegicus [13] was Active.

`COC(=O)[C@H]1C[C@H]2CC[C@@H](N2)[C@H]1c1cccs1.Cl`: the 50% effective dose (ED50) (usually the dose that gives a 50% effect, or the effect in half of the subjects) in the data set with Rattus norvegicus [14] amounted to 43 mg/kg; with Mus musculus [15] it was 3.3 mg/kg. The result with Rattus norvegicus [16] was Active. Moreover, the Drug metabolism result in data set [17] and in data set [18] was “metabolite_detected” in each case. The Activity entry is listed as “Toxic” in the data set on Mus musculus [4] and 43% in the data set with Rattus norvegicus [19].

For the molecule `COC(=O)[C@H]1CCCN(C)[C@@H]1c1cccs1` (relative stereo), the result with Rattus norvegicus [20] was inactive.

`CCCCCOC(=O)[C@H]1C[C@H]2CC[C@H]([C@H]1c1cccs1)N2C`: the Activity was under 20% with Rattus norvegicus [1], under 20% in the data set with Rattus norvegicus [21], under 20% with Rattus norvegicus [6] and 27% in the data set on Mus musculus [22].

On to `COC(=O)[C@H]1C[C@H]2CC[C@H]([C@H]1c1cccs1)N2C` (racemic), for which the outcome in the data set with Rattus norvegicus [8], with Rattus norvegicus [9], in the data set listed under Rattus norvegicus [11] and in the data set on Rattus norvegicus [23] was inactive. Moreover, the outcome in the data set with Rattus norvegicus [10] was Active.

`COC(=O)[C@H]1C[C@H]2CC[C@H]([C@H]1c1cccc(O)c1)N2C.Cl`: the Activity in the data set on Rattus norvegicus [24] and in the data set with Rattus norvegicus [13] was under 20% throughout. In addition, the ED50 in the data set with Mus musculus [15] worked out at 24 mg/kg. Further, the result in the data set with Rattus norvegicus [25] was inactive.

For the molecule `COC(=O)[C@H]1C[C@H]2CC[C@H]([C@H]1c1cccs1)N2CC(N)=O.Cl`, the Activity in the data set with Rattus norvegicus [26] is given as 66%; in the data set with Rattus norvegicus [6] it was 72%; in the data set with Mus musculus [22], 13%; in the data set with Rattus norvegicus [27], “Toxic”.

`CCCCN1[C@@H]2CC[C@@H]1[C@@H](c1cccs1)[C@@H](C(=O)OC)C2`: the Activity in the data set on Rattus norvegicus [5] worked out at 34%; with Rattus norvegicus [6] it was 88%; in the data set with Mus musculus [22], 20%.

Regarding `CCOCCN1[C@@H]2CC[C@@H]1[C@@H](c1cccs1)[C@@H](C(=O)OC)C2`, the Activity in the data set on Rattus norvegicus [28] is reported as 73%; in the data set on Rattus norvegicus [6], 100%; with Mus musculus [7], 67%; in the data set on Rattus norvegicus [29], “Toxic”; with Rattus norvegicus [27] it was “Toxic”; in the data set on Rattus norvegicus [30], “Toxic”. Further, the result in the data set on Rattus norvegicus [31] was inactive.

(Values after ChEMBL document CHEMBL3272053, “(exo, exo)-2-Aryltropane-3-carboxylic esters, hypoglycemic agents with accompanying analgesic activity” (J Med Chem, 1978).)
